From patent US20070082880A1 (priority 2005, published 2007)
pIC50: −log10 of the molar value.

Each molecule was assayed against T1, human PKCθ full length enzyme (Homo sapiens, UniProt Q04759) (assay: PKCθ IMAP Assay). Settings: average value when one or more samples were tested; ATP 6 uM, PKCθ 1 nM.
T1 construct: human PKCθ full length enzyme (Panvera Catalog No. P2996); purchased Panvera P2996
T1 sequence (Q04759 whole entry): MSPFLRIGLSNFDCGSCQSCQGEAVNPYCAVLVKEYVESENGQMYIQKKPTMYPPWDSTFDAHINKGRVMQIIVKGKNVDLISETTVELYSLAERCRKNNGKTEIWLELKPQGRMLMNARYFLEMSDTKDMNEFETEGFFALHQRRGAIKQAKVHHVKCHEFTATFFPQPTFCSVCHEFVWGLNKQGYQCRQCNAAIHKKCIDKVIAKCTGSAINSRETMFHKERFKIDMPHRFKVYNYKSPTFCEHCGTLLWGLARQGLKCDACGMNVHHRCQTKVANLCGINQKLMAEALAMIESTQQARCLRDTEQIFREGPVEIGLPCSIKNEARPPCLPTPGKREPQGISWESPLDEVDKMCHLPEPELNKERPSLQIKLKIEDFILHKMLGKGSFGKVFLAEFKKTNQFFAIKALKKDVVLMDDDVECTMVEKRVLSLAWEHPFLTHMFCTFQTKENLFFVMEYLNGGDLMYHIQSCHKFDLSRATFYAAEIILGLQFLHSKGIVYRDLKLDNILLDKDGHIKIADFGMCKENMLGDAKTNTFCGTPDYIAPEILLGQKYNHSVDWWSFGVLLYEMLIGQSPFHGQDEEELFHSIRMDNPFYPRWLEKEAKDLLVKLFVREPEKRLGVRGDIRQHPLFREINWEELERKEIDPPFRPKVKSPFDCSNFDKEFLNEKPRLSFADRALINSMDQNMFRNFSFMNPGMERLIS
Type: biochemical
Procedure, shortened: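 IMAP fluorescence polarization after 20 min with binding beads measured phosphorylation of 100 nM 5FAM-peptide. Reactions held 1 nM full-length human PKCθ, 6 uM ATP, 5% DMSO and DTT-containing buffer, 25 min at room temperature. Compounds tested as 2:1 serial dilutions; controls lacked ATP or enzyme.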
In the case of Cc1c(Nc2c(C#N)cnc3sc(-c4cc(CN(C)C)cc(OC(C)C)c4)cc23)ccc2[nH]ccc12 [Compound 466, 2-{3-[(dimethylamino)methyl]-5-isopropoxyphenyl}-4-[(4-methyl-1H-indol-5-yl)amino]thieno[2,3-b]pyridine-5-carbonitrile], the pIC50 was 7.19.
For Cc1c(Nc2c(C#N)cnc3sc(-c4cc5cc(CN(C)C)ccc5s4)cc23)ccc2[nH]ccc12 [Compound 467, 2-{5-[(dimethylamino)methyl]-1-benzothien-2-yl}-4-[(4-methyl-1H-indol-5-yl)amino]thieno[2,3-b]pyridine-5-carbonitrile], the pIC50 was 6.77.
For Cc1c(Nc2c(C#N)cnc3sc(-c4csc(CN(C)C)c4)cc23)ccc2[nH]ccc12 [Compound 468, 2-{5-[(dimethylamino)methyl]-3-thienyl}-4-[(4-methyl-1H-indol-5-yl)amino]thieno[2,3-b]pyridine-5-carbonitrile], the pIC50 was 7.80.
In the case of Cc1c(Nc2c(C#N)cnc3sc(-c4ccccc4CNCCCO)cc23)ccc2[nH]ccc12 [Compound 469, 2-(2-{[(3-hydroxypropyl)amino]methyl}phenyl)-4-[(4-methyl-1H-indol-5-yl)amino]thieno[2,3-b]pyridine-5-carbonitrile], the pIC50 was 6.82.
Work on Cc1c(Nc2c(C#N)cnc3sc(-c4ccccc4CNCCO)cc23)ccc2[nH]ccc12 [Compound 470, 2-(2-{[(2-hydroxyethyl)amino]methyl}phenyl)-4-[(4-methyl-1H-indol-5-yl)amino]thieno[2,3-b]pyridine-5-carbonitrile] yielded a pIC50 of 7.24.
In the case of N#Cc1cnc2sc(C3=CCNCC3)cc2c1Nc1cccc2[nH]ccc12 [Compound 473, 4-(1H-indol-4-ylamino)-2-(1,2,3,6-tetrahydropyridin-4-yl)thieno[2,3-b]pyridine-5-carbonitrile], the pIC50 was 6.84.
With Cc1c(Nc2c(C#N)cnc3sc(C4=CCNCC4)cc23)ccc2[nH]ccc12 [Compound 474, 4-[(4-methyl-1H-indol-5-yl)amino]-2-(1,2,3,6-tetrahydropyridin-4-yl)thieno[2,3-b]pyridine-5-carbonitrile] the pIC50 was 8.00.
For Cc1c(Nc2c(C#N)cnc3sc(C4=CCN(Cc5ccccc5)CC4)cc23)ccc2[nH]ccc12 [Compound 476, 2-(1-benzyl-1,2,3,6-tetrahydropyridin-4-yl)-4-[(4-methyl-1H-indol-5-yl)amino]thieno[2,3-b]pyridine-5-carbonitrile], the pIC50 was 6.82.
Cc1c(Nc2c(C#N)cnc3sc(C4CCNCC4)cc23)ccc2[nH]ccc12 [Compound 478, 4-[(4-methyl-1H-indol-5-yl)amino]-2-piperidin-4-ylthieno[2,3-b]pyridine-5-carbonitrile] showed a pIC50 of 7.15.
Molecule Cc1c(Nc2c(C#N)cnc3sc(C4CCN(Cc5ccccc5)C4)cc23)ccc2[nH]ccc12 (stereo not shown) [Compound 479, 2-(1-benzylpyrrolidin-3-yl)-4-[(4-methyl-1H-indol-5-yl)amino]thieno[2,3-b]pyridine-5-carbonitrile] has a pIC50 of 5.71.
Work on Cc1c(Nc2c(C#N)cnc3sc(-c4cccc(OC[C@@H](C)O)c4)cc23)ccc2[nH]ccc12 [Compound 482, 2-(3-{[(2R)-2-hydroxypropyl]-oxy}phenyl)-4-[(4-methyl-1H-indol-5-yl)amino]thieno[2,3-b]pyridine-5-carbonitrile] yielded a pIC50 of 7.03.
For Cc1c(Nc2c(C#N)cnc3sc(-c4cccc(OC[C@H](C)O)c4)cc23)ccc2[nH]ccc12 [Compound 483, 2-(3-{[(2S)-2-hydroxypropyl]-oxy}phenyl)-4-[(4-methyl-1H-indol-5-yl)amino]thieno[2,3-b]pyridine-5-carbonitrile], the pIC50 was 7.23.
Work on Cc1c(Nc2c(C#N)cnc3sc(-c4cccc(OC[C@H](O)CO)c4)cc23)ccc2[nH]ccc12 [Compound 484, 2-(3-{[(2R)-2,3-Dihydroxypropyl]-oxy}phenyl)-4-[(4-methyl-1H-indol-5-yl)amino]thieno[2,3-b]pyridine-5-carbonitrile] yielded a pIC50 of 7.77.
For Cc1c(Nc2c(C#N)cnc3sc(-c4cccc(OC[C@@H](O)CO)c4)cc23)ccc2[nH]ccc12 [Compound 485, 2-(3-{[(2S)-2,3-Dihydroxypropyl]-oxy}phenyl)-4-[(4-methyl-1H-indol-5-yl)amino]thieno[2,3-b]pyridine-5-carbonitrile], the pIC50 was 7.40.
For Cc1c(Nc2c(C#N)cnc3sc(-c4ccc(OC[C@H](O)CO)cc4)cc23)ccc2[nH]ccc12 [Compound 486, 2-(4-{[(2R)-2,3-dihydroxypropyl]-oxy}phenyl)-4-[(4-methyl-1H-indol-5-yl)amino]thieno[2,3-b]pyridine-5-carbonitrile], the pIC50 was 7.15.
Cc1c(Nc2c(C#N)cnc3sc(-c4ccc(OC[C@@H](O)CO)cc4)cc23)ccc2[nH]ccc12 [Compound 487, 2-(4-{[(2S)-2,3-dihydroxypropyl]-oxy}phenyl)-4-[(4-methyl-1H-indol-5-yl)amino]thieno[2,3-b]pyridine-5-carbonitrile] gave a pIC50 of 7.39.
Molecule Cc1c(Nc2c(C#N)cnc3sc(-c4ccc(OC[C@H](C)O)cc4)cc23)ccc2[nH]ccc12 [Compound 488, 2-(4-{[(2S)-2-hydroxypropyl]-oxy}phenyl)-4-[(4-methyl-1H-indol-5-yl)amino]thieno[2,3-b]pyridine-5-carbonitrile] has a pIC50 of 6.70.
Cc1c(Nc2c(C#N)cnc3sc(-c4ccc(OC[C@@H](C)O)cc4)cc23)ccc2[nH]ccc12 [Compound 489, 2-(4-{[(2R)-2-hydroxypropyl]-oxy}phenyl)-4-[(4-methyl-1H-indol-5-yl)amino]thieno[2,3-b]pyridine-5-carbonitrile] was tested, and the pIC50 was 6.76.
Cc1c(Nc2c(C#N)cnc3sc(-c4ccccc4OC[C@@H](C)O)cc23)ccc2[nH]ccc12 [Compound 490, 2-(2-{[(2R)-2-hydroxypropyl]-oxy}phenyl)-4-[(4-methyl-1H-indol-5-yl)amino]thieno[2,3-b]pyridine-5-carbonitrile] was tested, and the pIC50 was 6.98.
With Cc1c(Nc2c(C#N)cnc3sc(-c4ccccc4OC[C@H](C)O)cc23)ccc2[nH]ccc12 [Compound 491, 2-(2-{[(2S)-2-hydroxypropyl]-oxy}phenyl)-4-[(4-methyl-1H-indol-5-yl)amino]thieno[2,3-b]pyridine-5-carbonitrile] the pIC50 was 6.75.
Molecule Cc1c(Nc2c(C#N)cnc3sc(-c4ccccc4OC[C@@H](O)CO)cc23)ccc2[nH]ccc12 [Compound 492, 2-(2-{[(2S)-2,3-dihydroxypropyl]-oxy}phenyl)-4-[(4-methyl-1H-indol-5-yl)amino]thieno[2,3-b]pyridine-5-carbonitrile] has a pIC50 of 7.30.
For Cc1c(Nc2c(C#N)cnc3sc(-c4ccccc4OC[C@H](O)CO)cc23)ccc2[nH]ccc12 [Compound 493, 2-(2-{[(2R)-2,3-dihydroxypropyl]-oxy}phenyl)-4-[(4-methyl-1H-indol-5-yl)amino]thieno[2,3-b]pyridine-5-carbonitrile], the pIC50 was 7.35.
Work on CN(C)Cc1cccc(-c2cc3c(Nc4cnc5[nH]ccc5c4Cl)c(C#N)cnc3s2)c1 [Compound 498, 4-(4-chloro-1H-pyrrolo[2,3-b]pyridin-5-ylamino)-2-(3-((dimethylamino)methyl)phenyl)thieno[2,3-b]pyridine-5-carbonitrile] yielded a pIC50 of 8.52.
Molecule N#Cc1c[n+]([O-])c2sccc2c1Nc1ccc2[nH]ccc2c1 [Compound 499, 4-(1H-indol-5-ylamino)thieno[2,3-b]pyridine-5-carbonitrile-7-oxide] has a pIC50 of 5.88.
Work on CCOC(=O)c1cc2c(Nc3ccc4[nH]ccc4c3)c(C#N)cnc2s1 [Compound 502, ethyl 5-cyano-4-(1H-indol-5-ylamino)thieno[2,3-b]pyridine-2-carboxylate] yielded a pIC50 of 5.96.
Cc1c(Nc2c(C#N)cnc3scc(C(C)C)c23)ccc2[nH]ccc12 [Compound 503, 3-isopropyl-4-[(4-methyl-1H-indol-5-yl)amino]thieno[2,3-b]pyridine-5-carbonitrile] showed a pIC50 of 7.96.
Molecule Cc1c(Nc2c(C#N)cnc3sc(-c4cnccn4)cc23)ccc2[nH]ccc12 [Compound 504, 4-[(4-methyl-1H-indol-5-yl)amino]-2-pyrazin-2-ylthieno[2,3-b]pyridine-5-carbonitrile] has a pIC50 of 7.68.
Cc1c(Nc2c(C#N)cnc3sc(-c4cccc5[nH]ccc45)cc23)ccc2[nH]ccc12 [Compound 505, 2-(1H-indol-4-yl)-4-[(4-methyl-1H-indol-5-yl)amino]thieno[2,3-b]pyridine-5-carbonitrile] showed a pIC50 of 6.95.
Cc1c(Nc2c(C#N)cnc3sc(-c4cncnc4)cc23)ccc2[nH]ccc12 [Compound 506, 4-[(4-methyl-1H-indol-5-yl)amino]-2-pyrimidin-5-ylthieno[2,3-b]pyridine-5-carbonitrile] was tested, and the pIC50 was 7.77.
N#Cc1cnc2sc(I)cc2c1Nc1cnc2[nH]ccc2c1Cl [Compound 507, 4-[(4-chloro-1H-pyrrolo[2,3-b]pyridin-5-yl)amino]-2-iodothieno[2,3-b]pyridine-5-carbonitrile] gave a pIC50 of 7.16.
Cc1c(Nc2c(C#N)cnc3scc(-c4cccc(CN(C)C)c4)c23)ccc2[nH]ccc12 [Compound 508, 3-{3-[(dimethylamino)methyl]phenyl}-4-[(4-methyl-1H-indol-5-yl)amino]thieno[2,3-b]pyridine-5-carbonitrile] gave a pIC50 of 7.96.
Cc1c(Nc2c(C#N)cnc3sc(-c4cccc(NS(=O)(=O)N(C)C)c4)cc23)ccc2[nH]ccc12 [Compound 509, N′-(3-{5-cyano-4-[(4-methyl-1H-indol-5-yl)amino]thieno[2,3-b]pyridin-2-yl}phenyl)-N,N-dimethylsulfamide] gave a pIC50 of 7.29.
Cc1c(Nc2c(C#N)cnc3sc(-c4cccc(S(=O)(=O)NCCO)c4)cc23)ccc2[nH]ccc12 [Compound 510, 3-{5-cyano-4-[(4-methyl-1H-indol-5-yl)amino]thieno[2,3-b]pyridin-2-yl}-N-(2-hydroxyethyl)benzenesulfonamide] was tested, and the pIC50 was 7.77.
Molecule Cc1c(Nc2c(C#N)cnc3sc(-c4cc(C(=O)N(C)C)ccc4F)cc23)ccc2[nH]ccc12 [Compound 511, 3-{5-cyano-4-[(4-methyl-1H-indol-5-yl)amino]thieno[2,3-b]pyridin-2-yl}-4-fluoro-N,N-dimethylbenzamide] has a pIC50 of 7.18.
